Results published in the supplement of paper PMC11451515.

Columns and labels:
Details in all cases: 48 h
P12-Ichikawa [1] = test: AUC of viability dose-response curve (% viability x log10 dose units); higher = less sensitive
Outline: (§1)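 Seeding of medium-adapted leukemia cells was at 500 or 1000 cells/well in 1536-well plates, followed by 48 h at 37°C with library compounds in DMSO at 11 threefold doses from 47 μM to 0.79 nM. CellTiter-Glo One luminescence was normalised per plate to DMSO and cell-free wells and fitted as a four-parameter log-logistic function of log10 dose. Area under the curve was integrated by trapezoidal rule, with curves exceeding full viability scaled and curves failing quality control removed.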

NOMO1 [2] = test: as above
Outline: as §1

SEM cells [3] = test: as above
Outline: as §1

P12-Ichikawa [4] = test: cell viability relative to DMSO control; higher = less cytotoxic
Outline: (§2)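 Viability was expressed as a per-plate percentage of DMSO wells, with cell-free wells as background. Leukemia cells (NOMO1 or SEM at 500 cells/well, P12-Ichikawa at 1000 cells/well) were adapted for at least four passages in each medium and seeded in 1536-well plates (5 μl). Library compounds in DMSO were pin-dosed over an 11-point threefold series from 47 μM to 0.79 nM, and CellTiter-Glo One luminescence was read after 48 h at 37°C.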

NOMO1 [5] = test: as above
Outline: as §2

SEM cells [6] = test: as above
Outline: as §2

C/C=C(/C(=C/C)c1ccc(O)cc1)c1ccc(O)cc1
AUC of viability dose-response curve
Details | NOMO1 [2] | P12-Ichikawa [1] | SEM cells [3]
HPLM + 10% dialyzed FBS | 464 | 469 | 464
RPMI 5 mM glucose + 10% FBS | 431 | 465 | 467
RPMI 5 mM glucose + 10% dialyzed FBS | 457 | 465 | 465

CC1OC(OC/2=C(/OC3=C(C(=CC(=C3)O)O)C2=O)C4=CC=C(O)C=C4)C(O)C(OC(C)=O)C1OC(C)=O (stereo unspecified)
cell viability [%]
Details | NOMO1 [5] | P12-Ichikawa [4] | SEM cells [6]
HPLM + 10% dialyzed FBS, 0.000781 µM | 119 | 112 | 117
HPLM + 10% dialyzed FBS, 0.00234 µM | 109 | 118 | 120
HPLM + 10% dialyzed FBS, 0.00702 µM | 137 | 111 | 116
HPLM + 10% dialyzed FBS, 0.0211 µM | 130 | 116 | 113
HPLM + 10% dialyzed FBS, 0.0632 µM | 111 | 113 | 105
HPLM + 10% dialyzed FBS, 0.19 µM | 110 | 108 | 112
HPLM + 10% dialyzed FBS, 0.569 µM | 112 | 108 | 106
HPLM + 10% dialyzed FBS, 1.71 µM | 112 | 107 | 113
HPLM + 10% dialyzed FBS, 5.12 µM | 120 | 101 | 106
HPLM + 10% dialyzed FBS, 15.4 µM | 101 | 103 | 102
HPLM + 10% dialyzed FBS, 46.1 µM | 78.9 | 100 | 77.7
RPMI 5 mM glucose + 10% FBS, 0.000781 µM | 120 | 108 | –
RPMI 5 mM glucose + 10% FBS, 0.00234 µM | 116 | 114 | –
RPMI 5 mM glucose + 10% FBS, 0.00702 µM | 110 | 115 | –
RPMI 5 mM glucose + 10% FBS, 0.0211 µM | 100 | 112 | –
RPMI 5 mM glucose + 10% FBS, 0.0632 µM | 117 | 120 | –
RPMI 5 mM glucose + 10% FBS, 0.19 µM | 111 | 117 | –
RPMI 5 mM glucose + 10% FBS, 0.569 µM | 96.8 | 103 | –
RPMI 5 mM glucose + 10% FBS, 1.71 µM | 96.9 | 108 | –
RPMI 5 mM glucose + 10% FBS, 5.12 µM | 103 | 105 | –
RPMI 5 mM glucose + 10% FBS, 15.4 µM | 94.3 | 96.4 | –
RPMI 5 mM glucose + 10% FBS, 46.1 µM | 68.9 | 103 | –
RPMI 5 mM glucose + 10% dialyzed FBS, 0.000781 µM | 96.7 | 114 | 100
RPMI 5 mM glucose + 10% dialyzed FBS, 0.00234 µM | 108 | 119 | 101
RPMI 5 mM glucose + 10% dialyzed FBS, 0.00702 µM | 109 | 117 | 114
RPMI 5 mM glucose + 10% dialyzed FBS, 0.0211 µM | 111 | 115 | 102
RPMI 5 mM glucose + 10% dialyzed FBS, 0.0632 µM | 112 | 116 | 110
RPMI 5 mM glucose + 10% dialyzed FBS, 0.19 µM | 114 | 114 | 103
RPMI 5 mM glucose + 10% dialyzed FBS, 0.569 µM | 118 | 109 | 98.1
RPMI 5 mM glucose + 10% dialyzed FBS, 1.71 µM | 104 | 114 | 95.5
RPMI 5 mM glucose + 10% dialyzed FBS, 5.12 µM | 111 | 111 | 108
RPMI 5 mM glucose + 10% dialyzed FBS, 15.4 µM | 99.2 | 103 | 90.5
RPMI 5 mM glucose + 10% dialyzed FBS, 46.1 µM | 77.2 | 104 | 77.1

AUC of viability dose-response curve
Details | NOMO1 [2] | P12-Ichikawa [1] | SEM cells [3]
HPLM + 10% dialyzed FBS | 440 | 454 | 463
RPMI 5 mM glucose + 10% FBS | 430 | 455 | 367
RPMI 5 mM glucose + 10% dialyzed FBS | 466 | 460 | 465

CCC(C)N(C)C(=O)c1cc2ccccc2c(-c2ccccc2Cl)n1 (stereo unspecified)
AUC of viability dose-response curve
Details | NOMO1 [2] | P12-Ichikawa [1] | SEM cells [3]
HPLM + 10% dialyzed FBS | 452 | 462 | 461
RPMI 5 mM glucose + 10% FBS | 473 | 471 | 460
RPMI 5 mM glucose + 10% dialyzed FBS | 453 | 463 | 464

COC(=O)C/1=C/O[C@@H](O)[C@H]\2[C@@H]1C\C=C2CO
SEM cells [6], HPLM + 10% dialyzed FBS
Details | cell viability [%]
0.000781 µM | 98.6
0.00234 µM | 116
0.00702 µM | 101
0.0211 µM | 114
0.0632 µM | 138
0.19 µM | 114
0.569 µM | 126
1.71 µM | 112
5.12 µM | 112
15.4 µM | 104
46.1 µM | 76.9

AUC of viability dose-response curve
Details | NOMO1 [2] | P12-Ichikawa [1] | SEM cells [3]
HPLM + 10% dialyzed FBS | 472 | 469 | 465
RPMI 5 mM glucose + 10% FBS | 461 | 466 | 462
RPMI 5 mM glucose + 10% dialyzed FBS | 467 | 466 | 454

Cc1nc2c([nH]1)-c1ccccc1N(C(=O)c1ccc(NC(=O)c3ccccc3-c3ccccc3)cc1)CC2
cell viability [%]
Details | HPLM + 10% dialyzed FBS | RPMI 5 mM glucose + 10% FBS | RPMI 5 mM glucose + 10% dialyzed FBS
P12-Ichikawa [4], 0.000781 µM | 114 | – | –
P12-Ichikawa [4], 0.00234 µM | 120 | – | –
P12-Ichikawa [4], 0.00702 µM | 122 | – | –
P12-Ichikawa [4], 0.0211 µM | 117 | – | –
P12-Ichikawa [4], 0.0632 µM | 127 | – | –
P12-Ichikawa [4], 0.19 µM | 126 | – | –
P12-Ichikawa [4], 0.569 µM | 124 | – | –
P12-Ichikawa [4], 1.71 µM | 128 | – | –
P12-Ichikawa [4], 5.12 µM | 121 | – | –
P12-Ichikawa [4], 15.4 µM | 128 | – | –
P12-Ichikawa [4], 46.1 µM | 128 | – | –
SEM cells [6], 0.000781 µM | 91.3 | 123 | 111
SEM cells [6], 0.00234 µM | 115 | 120 | 143
SEM cells [6], 0.00702 µM | 90.8 | 100 | 108
SEM cells [6], 0.0211 µM | 123 | 138 | 131
SEM cells [6], 0.0632 µM | 114 | 129 | 140
SEM cells [6], 0.19 µM | 122 | 129 | 160
SEM cells [6], 0.569 µM | 123 | 141 | 130
SEM cells [6], 1.71 µM | 115 | 163 | 121
SEM cells [6], 5.12 µM | 113 | 128 | 127
SEM cells [6], 15.4 µM | 128 | 149 | 166
SEM cells [6], 46.1 µM | 124 | 118 | 124

AUC of viability dose-response curve
Details | NOMO1 [2] | P12-Ichikawa [1] | SEM cells [3]
HPLM + 10% dialyzed FBS | 470 | 466 | 451
RPMI 5 mM glucose + 10% FBS | 444 | 467 | 457
RPMI 5 mM glucose + 10% dialyzed FBS | 468 | 471 | 449

NC12CC3CC(CC(C3)C1)C2
cell viability [%]
Details | NOMO1 [5] | P12-Ichikawa [4] | SEM cells [6]
HPLM + 10% dialyzed FBS, 0.000781 µM | 108 | 109 | 45.1
HPLM + 10% dialyzed FBS, 0.00234 µM | 104 | 98.8 | 106
HPLM + 10% dialyzed FBS, 0.00702 µM | 102 | 103 | 70.8
HPLM + 10% dialyzed FBS, 0.0211 µM | 103 | 103 | 106
HPLM + 10% dialyzed FBS, 0.0632 µM | 138 | 105 | 125
HPLM + 10% dialyzed FBS, 0.19 µM | 121 | 111 | 114
HPLM + 10% dialyzed FBS, 0.569 µM | 111 | 108 | 113
HPLM + 10% dialyzed FBS, 1.71 µM | 106 | 103 | 124
HPLM + 10% dialyzed FBS, 5.12 µM | 101 | 117 | 98.1
HPLM + 10% dialyzed FBS, 15.4 µM | 96.4 | 114 | 123
HPLM + 10% dialyzed FBS, 46.1 µM | 88.5 | 105 | 119
RPMI 5 mM glucose + 10% FBS, 0.000781 µM | 102 | 102 | 42.3
RPMI 5 mM glucose + 10% FBS, 0.00234 µM | 102 | 119 | 102
RPMI 5 mM glucose + 10% FBS, 0.00702 µM | 102 | 118 | 70.6
RPMI 5 mM glucose + 10% FBS, 0.0211 µM | 101 | 120 | 104
RPMI 5 mM glucose + 10% FBS, 0.0632 µM | 97 | 119 | 109
RPMI 5 mM glucose + 10% FBS, 0.19 µM | 108 | 123 | 109
RPMI 5 mM glucose + 10% FBS, 0.569 µM | 98.2 | 112 | 102
RPMI 5 mM glucose + 10% FBS, 1.71 µM | 94.5 | 113 | 107
RPMI 5 mM glucose + 10% FBS, 5.12 µM | 99.1 | 110 | 89
RPMI 5 mM glucose + 10% FBS, 15.4 µM | 98.5 | 109 | 110
RPMI 5 mM glucose + 10% FBS, 46.1 µM | 104 | 107 | 104
RPMI 5 mM glucose + 10% dialyzed FBS, 0.000781 µM | 95.3 | 104 | 33.7
RPMI 5 mM glucose + 10% dialyzed FBS, 0.00234 µM | 95.8 | 113 | 96.5
RPMI 5 mM glucose + 10% dialyzed FBS, 0.00702 µM | 108 | 109 | 71.4
RPMI 5 mM glucose + 10% dialyzed FBS, 0.0211 µM | 97.8 | 111 | 108
RPMI 5 mM glucose + 10% dialyzed FBS, 0.0632 µM | 93.1 | 115 | 114
RPMI 5 mM glucose + 10% dialyzed FBS, 0.19 µM | 105 | 116 | 115
RPMI 5 mM glucose + 10% dialyzed FBS, 0.569 µM | 103 | 115 | 112
RPMI 5 mM glucose + 10% dialyzed FBS, 1.71 µM | 96 | 118 | 122
RPMI 5 mM glucose + 10% dialyzed FBS, 5.12 µM | 88.3 | 115 | 110
RPMI 5 mM glucose + 10% dialyzed FBS, 15.4 µM | 97 | 105 | 131
RPMI 5 mM glucose + 10% dialyzed FBS, 46.1 µM | 81 | 103 | 107

AUC of viability dose-response curve
Details | NOMO1 [2] | P12-Ichikawa [1] | SEM cells [3]
HPLM + 10% dialyzed FBS | 448 | 466 | 435
RPMI 5 mM glucose + 10% FBS | 470 | 466 | 401
RPMI 5 mM glucose + 10% dialyzed FBS | 461 | 476 | 371
